Test results from patent US20070161665A1, “Cancer treatment method” (priority 2003, published 2007).
Where a name gives a salt, the structure may show the parent alone.

Key:
[1] = test system: HN5 cells; experiment: Roche Cell Death ELISAPlus apoptosis assay in HN5 cells (median effect and sensitization ratio analysis); type: cell-based; details: HN5, 5 μM GW589522A 24 h
Procedure: HN5 cells are LICR-LON-HN5 head and neck carcinoma cells, which were a gift from the Institute of Cancer Research, Surrey, U.K.
(§1) Cell lines were grown in RPMI-1640 supplemented with 25 mM HEPES, 10 mM glutamine and 10% fetal bovine serum and maintained at 37° C. and 5% CO2 in a humid incubator. Assays were performed in 96 well microtiter plates with optimum seeding densities for each cell line.
(§2) Apoptosis was measured using the Roche Cell Death ELISA^Plus kit (catalog 1 774 425) which detects fragmented nucleosomal DNA that is generated during apoptosis.
Synergistic interaction between compounds was analyzed by the median effect method described by Chou and Talalay (Adv. Enzyme Regul. 22: 27-55, 1984). Briefly, if the two compounds fit the mutually exclusive model of Chou, one calculates the combination index (CI) using the formula CI=((D)1/(Dx)1)+((D)2/(Dx)2) (1) where (D)1 is the concentration of drug 1 in the combination that gives “x” percent apoptosis, (D)2 is the same for drug 2, and (Dx)1 and (Dx)2 are the concentrations of drug 1 or 2 that give “x” percent apoptosis when used alone. (D)1 and (D)2 are known from the composition of the combination and (Dx)1 and (Dx)2 can be calculated from the equation Dx=Dm*[fa/(1−fa)]^1/m (2) where Dm is the concentration of drug giving 50% effect, fa is the fraction affected, and m is the slope from the median effect plot of log (fa/fu) where fu is the fraction unaffected versus log (D). A CI less than 1 indicates synergy, equal to 1 indicates additivity and greater than 1 antagonism.
Sensitization is measured as the ratio between observed and expected apoptosis or caspase activation from a combination of AKT kinase inhibitor and EGFR/erb inhibitor. The expected level of activity (Ae) is calculated by Ae=1−((1−A1)*(1−A2)) (3) where A1 and A2 are the activities of drugs 1 and 2 alone at the concentration used in the combination (Harvey, R. J., J. Theor. Biol. 74: 411-437, 1978).

[2] = test system: T47D cells; experiment: Roche Cell Death ELISAPlus apoptosis assay in T47D cells (sensitization ratio); type: cell-based, human; details: compound at 25 μM, combined with GW589522
Procedure: T47D cells are human breast ductal carcinoma cells originally obtained from the American Type Culture Collection.
as §1, §2
The expected level of activity (Ae) is calculated by Ae=1−((1−A1)*(1−A2)) (3) where A1 and A2 are the activities of drugs 1 and 2 alone at the concentration used in the combination (Harvey, R. J., J. Theor. Biol. 74: 411-437, 1978).
Apoptosis was measured using the Roche Cell Death ELISA^Plus kit, and the relative percentage of apoptosis was determined for each combination.

[3] = target: AKT1 (Homo sapiens, UniProt P31749); experiment: Inhibition of AKT isoforms, enzyme IC50; type: biochemical
[4] = target: AKT2 (Homo sapiens, UniProt P31751); experiment: Inhibition of AKT isoforms, enzyme IC50; type: biochemical
[5] = target: AKT3 (Homo sapiens, UniProt Q9Y243); experiment: Inhibition of AKT isoforms, enzyme IC50; type: biochemical
Chain of AKT3 (Q9Y243 whole entry, species assumed, canonical isoform): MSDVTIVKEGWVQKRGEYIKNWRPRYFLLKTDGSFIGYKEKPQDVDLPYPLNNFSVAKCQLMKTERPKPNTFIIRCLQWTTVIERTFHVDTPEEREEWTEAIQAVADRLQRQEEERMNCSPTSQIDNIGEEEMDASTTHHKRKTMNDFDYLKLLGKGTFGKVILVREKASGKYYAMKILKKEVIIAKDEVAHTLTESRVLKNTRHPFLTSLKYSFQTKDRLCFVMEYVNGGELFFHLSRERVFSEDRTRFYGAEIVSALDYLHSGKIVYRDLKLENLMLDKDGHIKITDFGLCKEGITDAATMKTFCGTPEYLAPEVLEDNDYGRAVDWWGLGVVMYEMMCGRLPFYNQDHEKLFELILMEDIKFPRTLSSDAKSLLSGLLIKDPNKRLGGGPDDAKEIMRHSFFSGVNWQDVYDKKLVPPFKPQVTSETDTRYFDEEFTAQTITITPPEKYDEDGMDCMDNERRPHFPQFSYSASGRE

Chain of AKT1 (P31749 whole entry, species assumed, canonical isoform): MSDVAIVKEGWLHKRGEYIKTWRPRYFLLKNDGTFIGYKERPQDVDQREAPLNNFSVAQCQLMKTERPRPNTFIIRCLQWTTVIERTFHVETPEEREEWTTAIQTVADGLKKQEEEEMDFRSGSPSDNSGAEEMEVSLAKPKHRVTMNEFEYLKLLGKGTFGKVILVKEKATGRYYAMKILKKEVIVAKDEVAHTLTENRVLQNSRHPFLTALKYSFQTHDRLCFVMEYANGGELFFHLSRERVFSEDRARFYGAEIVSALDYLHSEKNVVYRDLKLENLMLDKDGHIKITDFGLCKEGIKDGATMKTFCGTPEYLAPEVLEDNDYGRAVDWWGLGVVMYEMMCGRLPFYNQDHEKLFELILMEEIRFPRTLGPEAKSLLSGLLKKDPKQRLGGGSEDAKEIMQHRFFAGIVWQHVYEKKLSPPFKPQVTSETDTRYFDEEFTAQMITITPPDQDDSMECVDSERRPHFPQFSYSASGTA
Chain of AKT2 (P31751 whole entry, species assumed, canonical isoform): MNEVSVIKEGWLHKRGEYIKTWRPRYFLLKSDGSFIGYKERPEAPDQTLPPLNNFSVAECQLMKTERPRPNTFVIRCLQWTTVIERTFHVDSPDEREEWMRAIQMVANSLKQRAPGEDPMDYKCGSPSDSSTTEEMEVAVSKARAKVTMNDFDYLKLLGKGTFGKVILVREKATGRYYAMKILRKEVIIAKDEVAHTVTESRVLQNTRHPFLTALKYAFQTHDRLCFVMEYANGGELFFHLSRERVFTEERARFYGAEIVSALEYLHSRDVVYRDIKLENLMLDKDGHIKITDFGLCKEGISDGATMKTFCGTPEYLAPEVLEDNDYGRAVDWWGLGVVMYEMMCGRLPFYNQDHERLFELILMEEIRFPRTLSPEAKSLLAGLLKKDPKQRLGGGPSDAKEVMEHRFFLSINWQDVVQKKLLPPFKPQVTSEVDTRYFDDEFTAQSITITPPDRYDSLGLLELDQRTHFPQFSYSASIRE

| SMILES | Sensitization Ratio in HN5 with 5 μM GW589522A ([1]; then compound 25 μM 4 h) | SR (sensitization ratio) [2] | IC50 [3] [nM] | IC50 [4] [nM] | IC50 [5] [nM] | Sensitization Ratio in HN5 with 5 μM GW589522A ([1]; then compound 8 μM 4 h) |
| --- | --- | --- | --- | --- | --- | --- |
| Nc1nonc1-c1nc2c(-c3cccc(Cl)c3)ncc(C(=O)NCCNCc3ccccc3)c2n1CC1CC1.O=C(O)C(F)(F)F [Ex 8, 2-(4-amino-1,2,5-oxadiazol-3-yl)-4-(3-chlorophenyl)-1-(cyclopropylmethyl)-N-{2-[(phenylmethyl)amino]ethyl}-1H-imidazo[4,5-c]pyridine-7-carboxamide, trifluoroacetate salt] | 27 @ 25 | 7.1 | 8320 | 7940 | 450 | – |
| CCn1c(-c2nonc2N)nc2c(-c3cccc(Cl)c3)ncc(OCCCCN)c21.O=C(O)C(F)(F)F [Ex 12, 4-[7-[(4-aminobutyl)oxy]-4-(3-chlorophenyl)-1-ethyl-1H-imidazo-[4,5-c]pyridin-2-yl]-1,2,5-oxadiazol-3-amine trifluoroacetate] | 3.6 @ 25 | – | 40 | 40 | 10 | – |
| CCn1c(-c2nonc2N)nc2cncc(OC3CCNCC3)c21 [Ex 9 (tri-HCl salt), 4-[1-Ethyl-7-(piperidin-4-yloxy)-1H-imidazo[4,5-c]pyridin-2-yl]-furazan-3-ylamine] | – | – | 50 | 270 | 190 | 10 @ 8 |
